Test results: US20120178915A1, “PYRIMIDINE DERIVATIVES AND ANALOGS, PREPARATION METHOD AND USE THEREOF” (priority 2009, published 2012)
Converted amounts (≈) assume the structure as drawn. Where two headings read alike, the source gives them in different places.

Tests used:
Type in all cases: cell-based
[1] = system: Gram-positive Bacteria
[2] = system: Bacillus cereus 2; assay: microbe, parasite or virus in culture; conditions: 37° C., 24 h, read-out: Minimum Inhibitory Concentration, MIC
[3] = system: Bacillus cereus 246; assay: microbe, parasite or virus in culture; conditions: 37° C., 24 h, read-out: Minimum Inhibitory Concentration, MIC
[4] = system: Bacillus subtilis 82; assay: microbe, parasite or virus in culture; conditions: 37° C., 24 h, read-out: Minimum Inhibitory Concentration, MIC
[5] = system: Bacillus subtilis 168; assay: microbe, parasite or virus in culture; conditions: 37° C., 24 h, read-out: Minimum Inhibitory Concentration, MIC
[6] = system: Enterococcus faecalis 29212; assay: microbe, parasite or virus in culture; conditions: 37° C., 24 h, read-out: Minimum Inhibitory Concentration, MIC
[7] = system: Enterococcus faecalis 51299; assay: microbe, parasite or virus in culture; conditions: Enterococcus faecalis, 51299, 24 h, read-out: Minimum Inhibitory Concentration, MIC
[8] = system: Enterococcus faecalis 19433; assay: microbe, parasite or virus in culture; conditions: 37° C., 24 h, read-out: Minimum Inhibitory Concentration, MIC
[9] = system: Enterococcus faecalis F2518 (VRE); assay: microbe, parasite or virus in culture; conditions: 24 h, read-out: Minimum Inhibitory Concentration, MIC
[10] = system: Enterococcus fecal F631 (VRE); assay: organism not typed; conditions: 24 h, read-out: Minimum Inhibitory Concentration, MIC
[11] = system: Enterococcus faecalis 1513 (VRE); assay: microbe, parasite or virus in culture; conditions: 24 h, read-out: Minimum Inhibitory Concentration, MIC
[12] = system: Enterococcus faecalis 583 (VRE); assay: microbe, parasite or virus in culture; conditions: 24 h, read-out: Minimum Inhibitory Concentration, MIC
[13] = system: Staphylococcus aureus 29231; assay: microbe, parasite or virus in culture; conditions: 37° C., 24 h, read-out: Minimum Inhibitory Concentration, MIC
[14] = system: Staphylococcus aureus 43300 (MRSA); assay: microbe, parasite or virus in culture; conditions: 24 h, read-out: Minimum Inhibitory Concentration, MIC
[15] = system: Staphylococcus aureus 703 (MRSA); assay: microbe, parasite or virus in culture; conditions: 24 h, read-out: Minimum Inhibitory Concentration, MIC
[16] = system: Staphylococcus aureus 704 (MRSA); assay: microbe, parasite or virus in culture; conditions: 24 h, read-out: Minimum Inhibitory Concentration, MIC
[17] = system: Staphylococcus aureus 705 (MRSA); assay: microbe, parasite or virus in culture; conditions: 24 h, read-out: Minimum Inhibitory Concentration, MIC
[18] = system: Streptococcus pneumoniae 6303 (PRSP); assay: microbe, parasite or virus in culture; conditions: 24 h, read-out: Minimum Inhibitory Concentration, MIC
[19] = system: Streptococcus pneumoniae 62; assay: microbe, parasite or virus in culture; conditions: 37° C., 24 h, read-out: Minimum Inhibitory Concentration, MIC
[20] = system: Streptococcus pneumoniae 6301; assay: microbe, parasite or virus in culture; conditions: 37° C., 24 h, read-out: Minimum Inhibitory Concentration, MIC
[21] = system: Streptococcus pneumoniae M2; assay: microbe, parasite or virus in culture; conditions: 37° C., 24 h, read-out: Minimum Inhibitory Concentration, MIC
[22] = system: Pyogenic Streptococcus; assay: microbe, parasite or virus in culture; conditions: 37° C., 24 h, read-out: Minimum Inhibitory Concentration, MIC
[23] = system: Streptococcus agalactiae B; assay: microbe, parasite or virus in culture; conditions: 37° C., 24 h, read-out: Minimum Inhibitory Concentration, MIC
[24] = system: green Streptococcus 1009; assay: microbe, parasite or virus in culture; conditions: 37° C., 24 h, read-out: Minimum Inhibitory Concentration, MIC
[25] = system: Streptococcus bovis 10035; assay: microbe, parasite or virus in culture; conditions: Streptococcus equinus, 37° C., 24 h, read-out: Minimum Inhibitory Concentration, MIC
[26] = system: Streptococcus 10342; assay: MIC broth microdilution; conditions: 37° C., 24 h, read-out: Minimum Inhibitory Concentration, MIC
[27] = system: Streptococcus pneumoniae 10351; assay: microbe, parasite or virus in culture; conditions: 37° C., 24 h, read-out: Minimum Inhibitory Concentration, MIC
[28] = system: Bacillus anthracis 1; assay: microbe, parasite or virus in culture; conditions: Bacillus anthracis, 1, 24 h, read-out: Minimum Inhibitory Concentration, MIC
[29] = system: Corynebacterium diphtheriae; assay: microbe, parasite or virus in culture; conditions: 37° C., 24 h, read-out: Minimum Inhibitory Concentration, MIC
[30] = system: Clostridium tetani; assay: microbe, parasite or virus in culture; conditions: 24 h
[31] = system: Clostridium perfringens; assay: microbe, parasite or virus in culture; conditions: 24 h, read-out: Minimum Inhibitory Concentration, MIC
[32] = system: Oral candidiasis; assay: MIC broth microdilution; conditions: Microorganism 32, Oral candidiasis; 37° C., 24 h; read-out: Minimum Inhibitory Concentration, MIC
[33] = MIC broth microdilution; conditions: Microorganism 33, Dermatophytosis; 37° C., 24 h; read-out: Minimum Inhibitory Concentration, MIC
[34] = read-out: Minimum Inhibitory Concentration, MIC, Microorganism 29, Clostridium tetani, 37° C.
[35] = read-out: Minimum Inhibitory Concentration, MIC, Microorganism 30, Clostridium tetani (second line of that name), 37° C.
[36] = the majority of Bacillus cereus, Bacillus subtilis and Enterococcus faecalis

| SMILES | MIC [2] | MIC [3] | MIC [4] | MIC [5] | MIC [6] | MIC [7] | MIC [8] | MIC [9] | MIC [10] | MIC [11] | MIC [12] | MIC [13] | MIC [14] | MIC [15] | MIC [16] | MIC [17] | MIC [18] | MIC [19] | MIC [20] | MIC [21] | further results |
| --- | --- | --- | --- | --- | --- | --- | --- | --- | --- | --- | --- | --- | --- | --- | --- | --- | --- | --- | --- | --- | --- |
| Cc1nn2c(=O)cc(-c3ccc(C#N)cc3)[nH]c2c1-c1ccc(Cl)cc1Cl [Compound 10] | 0.31 µM (≈ 0.123 µg/mL) | 1.32 µM (≈ 0.522 µg/mL) | 0.63 µM (≈ 0.249 µg/mL) | 0.63 µM (≈ 0.249 µg/mL) | 1.25 µM (≈ 0.494 µg/mL) | 2.3 µM (≈ 0.909 µg/mL) | 0.02 µM (≈ 0.0079 µg/mL) | 0.31 µM (≈ 0.123 µg/mL) | 0.56 µM (≈ 0.221 µg/mL) | 0.61 µM (≈ 0.241 µg/mL) | 0.99 µM (≈ 0.391 µg/mL) | 0.63 µM (≈ 0.249 µg/mL) | 1.23 µM (≈ 0.486 µg/mL) | 0.34 µM (≈ 0.134 µg/mL) | 0.23 µM (≈ 0.0909 µg/mL) | 0.31 µM (≈ 0.123 µg/mL) | 0.04 µM (≈ 0.0158 µg/mL) | 0.25 µM (≈ 0.0988 µg/mL) | 0.16 µM (≈ 0.0632 µg/mL) | 0.31 µM (≈ 0.123 µg/mL) | inhibition of growth (conclusion from MICs) ([1]; Enterococcus faecalis (VRE), Staphylococcus aureus (MRSA), Streptococcus pneumoniae 6303 (PRSP), Bacillus cereus, Bacillus subtilis, Enterococcus faecalis, Staphylococcus aureus, Streptococcus pneumoniae, Streptococcus agalactiae B and streptococci 4): significantly inhibited the growth; MIC [22]: 2.5 µM (≈ 0.988 µg/mL); MIC [23]: 5 µM (≈ 1.98 µg/mL); MIC [24]: 1.45 µM (≈ 0.573 µg/mL); MIC [25]: 1.05 µM (≈ 0.415 µg/mL); MIC [26]: 1.15 µM (≈ 0.455 µg/mL); MIC [27]: 1.35 µM (≈ 0.534 µg/mL); MIC [28]: 35.6 µM (≈ 14.1 µg/mL); MIC [29]: 70.3 µM (≈ 27.8 µg/mL); MIC [30, 34]: 60.3 µM (≈ 23.8 µg/mL); MIC [30, 35]: 20.3 µM (≈ 8.02 µg/mL); MIC [31]: 25.1 µM (≈ 9.92 µg/mL); MIC [32]: 99.2 µM (≈ 39.2 µg/mL); MIC [33]: 55.9 µM (≈ 22.1 µg/mL) |
| O=c1[nH]c(-c2ccc(C(F)(F)F)cc2)nc2cc(Cl)ccc12 [Compound 14] | 20.2 µM (≈ 6.57 µg/mL) | 30.2 µM (≈ 9.79 µg/mL) | 10.3 µM (≈ 3.35 µg/mL) | 12.5 µM (≈ 4.06 µg/mL) | 15 µM (≈ 4.87 µg/mL) | 21.5 µM (≈ 6.98 µg/mL) | 13.5 µM (≈ 4.38 µg/mL) | 122 µM (≈ 39.7 µg/mL) | 221 µM (≈ 71.8 µg/mL) | 130 µM (≈ 42.3 µg/mL) | 120 µM (≈ 39.1 µg/mL) | 6.31 µM (≈ 2.05 µg/mL) | 120 µM (≈ 39.1 µg/mL) | 125 µM (≈ 40.6 µg/mL) | 160 µM (≈ 52 µg/mL) | 210 µM (≈ 68.3 µg/mL) | 250 µM (≈ 81.2 µg/mL) | 100 µM (≈ 32.5 µg/mL) | 141 µM (≈ 45.7 µg/mL) | 120 µM (≈ 39 µg/mL) | inhibition of growth (conclusion from MICs) [1, 36]: significantly inhibited the growth; MIC [22]: 132 µM (≈ 43 µg/mL); MIC [23]: 225 µM (≈ 73.1 µg/mL); MIC [24]: 126 µM (≈ 40.7 µg/mL); MIC [25]: 100 µM (≈ 32.6 µg/mL); MIC [26]: 170 µM (≈ 55.4 µg/mL); MIC [27]: 104 µM (≈ 33.6 µg/mL); MIC [28]: 122 µM (≈ 39.8 µg/mL); MIC [29]: 135 µM (≈ 43.9 µg/mL); MIC [30, 34]: 160 µM (≈ 52 µg/mL); MIC [30, 35]: 120 µM (≈ 39.1 µg/mL); MIC [31]: 125 µM (≈ 40.6 µg/mL); MIC [32]: 133 µM (≈ 43.2 µg/mL); MIC [33]: 121 µM (≈ 39.4 µg/mL) |
| CCc1nn2c(=O)cc(-c3ccc(C#N)cc3)[nH]c2c1-c1ccc(Cl)cc1Cl [Compound 5] | 10.5 µM (≈ 4.3 µg/mL) | 0.3 µM (≈ 0.123 µg/mL) | 0.04 µM (≈ 0.0164 µg/mL) | 0.12 µM (≈ 0.0491 µg/mL) | 0.16 µM (≈ 0.0655 µg/mL) | 0.3 µM (≈ 0.123 µg/mL) | 2.01 µM (≈ 0.823 µg/mL) | 31.3 µM (≈ 12.8 µg/mL) | 19.2 µM (≈ 7.86 µg/mL) | 35.2 µM (≈ 14.4 µg/mL) | 32.1 µM (≈ 13.1 µg/mL) | 5.31 µM (≈ 2.17 µg/mL) | 213 µM (≈ 87.3 µg/mL) | 135 µM (≈ 55.4 µg/mL) | 150 µM (≈ 61.5 µg/mL) | 123 µM (≈ 50.4 µg/mL) | 105 µM (≈ 43.1 µg/mL) | 10.5 µM (≈ 4.3 µg/mL) | 0.3 µM (≈ 0.123 µg/mL) | 0.04 µM (≈ 0.0164 µg/mL) | inhibition of growth (conclusion from MICs) [1, 36]: significantly inhibited the growth; MIC [22]: 20.1 µM (≈ 8.23 µg/mL); MIC [23]: 0.16 µM (≈ 0.0655 µg/mL); MIC [24]: 0.31 µM (≈ 0.127 µg/mL); MIC [25]: 2.01 µM (≈ 0.823 µg/mL); MIC [26]: 1.33 µM (≈ 0.544 µg/mL); MIC [27]: 1.25 µM (≈ 0.512 µg/mL); MIC [28]: 52.4 µM (≈ 21.4 µg/mL); MIC [29]: 26.1 µM (≈ 10.7 µg/mL); MIC [30, 34]: 50.3 µM (≈ 20.6 µg/mL); MIC [30, 35]: 23.2 µM (≈ 9.5 µg/mL); MIC [31]: 55.3 µM (≈ 22.6 µg/mL); MIC [32]: 52.1 µM (≈ 21.3 µg/mL); MIC [33]: 33.5 µM (≈ 13.7 µg/mL) |
